Data taken from paper doi:10.1101/2025.03.24.645127v1 (biorxiv, 2025).

Biological target: T1, GPR119 (Homo sapiens, UniProt Q8TDV5)
T1 sequence (Q8TDV5 1-335): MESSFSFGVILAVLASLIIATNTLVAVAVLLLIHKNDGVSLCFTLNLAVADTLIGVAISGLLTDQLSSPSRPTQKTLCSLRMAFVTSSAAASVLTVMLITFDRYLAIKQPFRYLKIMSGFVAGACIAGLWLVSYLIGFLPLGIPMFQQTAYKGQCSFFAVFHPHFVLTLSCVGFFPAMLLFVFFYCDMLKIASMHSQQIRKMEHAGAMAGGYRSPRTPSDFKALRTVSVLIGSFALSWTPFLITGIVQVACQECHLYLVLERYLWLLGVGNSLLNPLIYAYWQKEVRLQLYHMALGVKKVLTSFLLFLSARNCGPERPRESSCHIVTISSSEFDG
Assay: cAMP GloSensor assay in CHO-K1
Format: cell-based

EC50: ~3 µM
Structure (SMILES): COC(=O)N[C@H](C(=O)N[C@@H](Cc1ccccc1)[C@@H](O)CN(Cc1ccc(-c2ccccn2)cc1)NC(=O)[C@@H](NC(=O)OC)C(C)(C)C)C(C)(C)C [atazanavir]
